Results from publication PMC6458995, “MAP4K4 Inhibition Promotes Survival of Human Stem Cell-Derived Cardiomyocytes and Reduces Infarct Size In Vivo” (Cell Stem Cell, 2019).

Columns and labels:
Test in all cases: Dundee kinase panel
Format in all cases: biochemical
Conditions in all cases: for remaining activity at 1 µM: read-out: residual activity
CDK9-Cyclin T1 = target: T1, CDK9-Cyclin T1 (Homo sapiens, UniProt P50750)
T1 construct: lines 1-140) and Reaction Biology
Procedure: (§1) Compounds were screened at 1 μM. For key hits, pIC50 values were then determined by HTRF as above. […] Stability in mouse and human liver microsomes was determined by Cyprotex.

EIF2AK3 = target: T2, EIF2AK3 (Homo sapiens, UniProt Q9NZJ5)
T2 construct: lines 1-140) and Reaction Biology
T2 sequence (Q9NZJ5 30-1116): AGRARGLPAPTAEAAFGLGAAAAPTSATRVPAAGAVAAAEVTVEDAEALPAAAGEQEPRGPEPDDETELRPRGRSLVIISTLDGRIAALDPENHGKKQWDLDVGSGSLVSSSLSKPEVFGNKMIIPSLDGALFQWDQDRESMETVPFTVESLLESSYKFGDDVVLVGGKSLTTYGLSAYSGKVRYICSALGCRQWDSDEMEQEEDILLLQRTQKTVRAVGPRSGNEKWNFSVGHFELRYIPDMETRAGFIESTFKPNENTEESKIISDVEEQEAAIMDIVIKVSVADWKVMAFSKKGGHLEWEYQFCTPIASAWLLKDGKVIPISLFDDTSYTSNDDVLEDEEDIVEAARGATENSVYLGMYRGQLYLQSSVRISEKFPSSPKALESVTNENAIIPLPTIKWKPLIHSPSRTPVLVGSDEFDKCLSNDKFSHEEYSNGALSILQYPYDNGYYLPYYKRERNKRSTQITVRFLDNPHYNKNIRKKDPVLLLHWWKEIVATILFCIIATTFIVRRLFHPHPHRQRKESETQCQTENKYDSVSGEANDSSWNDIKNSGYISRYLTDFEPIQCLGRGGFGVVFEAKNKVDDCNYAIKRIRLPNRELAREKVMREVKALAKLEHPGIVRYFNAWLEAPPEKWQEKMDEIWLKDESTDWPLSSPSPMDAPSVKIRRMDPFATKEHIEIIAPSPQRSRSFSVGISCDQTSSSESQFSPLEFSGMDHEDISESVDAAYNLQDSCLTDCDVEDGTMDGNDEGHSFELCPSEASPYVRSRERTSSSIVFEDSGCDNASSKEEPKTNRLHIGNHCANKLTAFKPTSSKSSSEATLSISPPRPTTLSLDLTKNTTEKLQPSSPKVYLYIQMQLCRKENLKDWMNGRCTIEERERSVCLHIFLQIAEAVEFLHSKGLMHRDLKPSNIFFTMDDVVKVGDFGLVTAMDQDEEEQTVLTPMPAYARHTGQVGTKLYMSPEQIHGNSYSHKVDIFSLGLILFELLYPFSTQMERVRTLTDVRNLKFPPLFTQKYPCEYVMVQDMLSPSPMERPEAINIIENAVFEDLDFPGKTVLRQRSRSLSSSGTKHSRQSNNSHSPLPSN
Procedure: as §1

EPH-A2 = target: T3, EPH-A2 (Homo sapiens, UniProt P29317)
T3 construct: lines 1-140) and Reaction Biology
Procedure: as §1

MAP4K3 = target: T4, MAP4K3 (Homo sapiens, UniProt Q8IVH8)
T4 construct: lines 1-140) and Reaction Biology
T4 sequence (Q8IVH8 1-894): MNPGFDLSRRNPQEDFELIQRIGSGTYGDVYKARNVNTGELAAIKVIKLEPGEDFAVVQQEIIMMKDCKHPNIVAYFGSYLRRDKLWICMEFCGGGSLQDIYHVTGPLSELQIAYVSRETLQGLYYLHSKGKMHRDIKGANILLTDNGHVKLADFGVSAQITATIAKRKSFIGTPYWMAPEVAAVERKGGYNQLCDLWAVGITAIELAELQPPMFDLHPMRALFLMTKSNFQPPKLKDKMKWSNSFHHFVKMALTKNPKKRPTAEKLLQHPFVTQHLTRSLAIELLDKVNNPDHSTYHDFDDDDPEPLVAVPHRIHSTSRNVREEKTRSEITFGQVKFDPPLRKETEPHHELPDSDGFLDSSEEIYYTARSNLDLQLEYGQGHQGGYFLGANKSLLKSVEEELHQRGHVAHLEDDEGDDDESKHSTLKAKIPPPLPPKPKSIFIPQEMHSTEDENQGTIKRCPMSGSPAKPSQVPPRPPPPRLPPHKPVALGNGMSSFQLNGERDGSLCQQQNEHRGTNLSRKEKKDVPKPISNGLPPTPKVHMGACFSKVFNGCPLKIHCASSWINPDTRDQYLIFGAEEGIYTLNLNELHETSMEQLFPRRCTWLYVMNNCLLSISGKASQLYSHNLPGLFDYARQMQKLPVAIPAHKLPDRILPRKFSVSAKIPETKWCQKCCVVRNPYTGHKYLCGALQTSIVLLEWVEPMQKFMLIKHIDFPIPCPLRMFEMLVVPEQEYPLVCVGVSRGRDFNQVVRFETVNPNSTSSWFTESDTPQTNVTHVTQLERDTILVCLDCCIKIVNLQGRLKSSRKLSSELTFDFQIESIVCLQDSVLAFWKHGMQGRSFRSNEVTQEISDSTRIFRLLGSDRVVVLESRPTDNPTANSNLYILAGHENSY
Procedure: as §1

MEKK1 = target: T5, MEKK1 (Homo sapiens, UniProt Q13233)
T5 construct: lines 1-140) and Reaction Biology
Procedure: as §1

SYK = target: T6, SYK (Homo sapiens, UniProt P43405)
T6 construct: lines 1-140) and Reaction Biology
Procedure: as §1

p38d MAPK = target: T7, p38d MAPK (Homo sapiens, UniProt O15264)
T7 construct: lines 1-140) and Reaction Biology
T7 sequence (O15264 1-365): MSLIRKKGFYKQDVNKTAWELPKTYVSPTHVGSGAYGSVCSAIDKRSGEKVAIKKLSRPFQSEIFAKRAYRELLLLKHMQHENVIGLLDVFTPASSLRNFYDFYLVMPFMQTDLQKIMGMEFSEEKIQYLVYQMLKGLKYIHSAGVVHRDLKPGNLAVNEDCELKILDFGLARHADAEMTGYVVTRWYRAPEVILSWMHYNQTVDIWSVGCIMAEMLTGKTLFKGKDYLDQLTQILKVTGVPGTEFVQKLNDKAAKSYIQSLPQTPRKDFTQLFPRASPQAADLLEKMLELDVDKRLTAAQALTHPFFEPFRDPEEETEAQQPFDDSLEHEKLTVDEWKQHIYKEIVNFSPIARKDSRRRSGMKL
Procedure: as §1

DYRK1A = target: T8, DYRK1A (Homo sapiens, UniProt Q13627)
T8 construct: lines 1-140) and Reaction Biology
Procedure: Kinase selectivity profiling was performed by the International Centre for Kinase Profiling, MRC Protein Phosphorylation and Ubiquitylation Unit (141 kinases; Premier Screen, http://www.kinase-screen.mrc.ac.uk), using a [γ-^33P]ATP filter binding assay ([Bain et al., 2007]). Compounds were screened at 1 μM. For key hits, pIC50 values were then determined by HTRF as above. More complete kinome profiling was performed by Reaction Biology (376 kinases). Stability in mouse and human liver microsomes was determined by Cyprotex.

T3 sequence (P29317 24-976): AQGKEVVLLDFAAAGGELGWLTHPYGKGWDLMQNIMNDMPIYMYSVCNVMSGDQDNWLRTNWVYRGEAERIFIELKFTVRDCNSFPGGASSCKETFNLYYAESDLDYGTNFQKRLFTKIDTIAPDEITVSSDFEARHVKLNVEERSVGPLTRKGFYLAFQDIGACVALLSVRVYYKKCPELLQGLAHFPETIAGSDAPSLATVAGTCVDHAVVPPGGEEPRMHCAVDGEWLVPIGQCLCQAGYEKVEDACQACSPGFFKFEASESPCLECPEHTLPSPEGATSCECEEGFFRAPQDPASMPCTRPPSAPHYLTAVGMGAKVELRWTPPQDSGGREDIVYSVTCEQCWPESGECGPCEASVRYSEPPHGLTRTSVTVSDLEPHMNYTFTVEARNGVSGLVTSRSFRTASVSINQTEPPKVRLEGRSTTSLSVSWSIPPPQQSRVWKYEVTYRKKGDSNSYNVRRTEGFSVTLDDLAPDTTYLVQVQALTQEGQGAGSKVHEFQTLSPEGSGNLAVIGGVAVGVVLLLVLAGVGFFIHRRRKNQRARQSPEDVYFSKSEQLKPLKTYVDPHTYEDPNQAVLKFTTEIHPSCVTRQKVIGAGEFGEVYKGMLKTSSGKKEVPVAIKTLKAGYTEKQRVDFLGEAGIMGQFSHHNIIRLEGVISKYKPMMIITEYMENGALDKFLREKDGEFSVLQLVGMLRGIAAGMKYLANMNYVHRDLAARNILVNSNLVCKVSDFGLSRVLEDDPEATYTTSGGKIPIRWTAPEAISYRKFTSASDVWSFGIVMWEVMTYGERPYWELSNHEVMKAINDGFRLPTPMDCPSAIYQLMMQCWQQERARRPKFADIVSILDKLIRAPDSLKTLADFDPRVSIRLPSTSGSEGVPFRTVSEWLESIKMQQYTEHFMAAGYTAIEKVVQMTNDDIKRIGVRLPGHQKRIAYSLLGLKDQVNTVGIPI
T5 sequence (Q13233 whole entry): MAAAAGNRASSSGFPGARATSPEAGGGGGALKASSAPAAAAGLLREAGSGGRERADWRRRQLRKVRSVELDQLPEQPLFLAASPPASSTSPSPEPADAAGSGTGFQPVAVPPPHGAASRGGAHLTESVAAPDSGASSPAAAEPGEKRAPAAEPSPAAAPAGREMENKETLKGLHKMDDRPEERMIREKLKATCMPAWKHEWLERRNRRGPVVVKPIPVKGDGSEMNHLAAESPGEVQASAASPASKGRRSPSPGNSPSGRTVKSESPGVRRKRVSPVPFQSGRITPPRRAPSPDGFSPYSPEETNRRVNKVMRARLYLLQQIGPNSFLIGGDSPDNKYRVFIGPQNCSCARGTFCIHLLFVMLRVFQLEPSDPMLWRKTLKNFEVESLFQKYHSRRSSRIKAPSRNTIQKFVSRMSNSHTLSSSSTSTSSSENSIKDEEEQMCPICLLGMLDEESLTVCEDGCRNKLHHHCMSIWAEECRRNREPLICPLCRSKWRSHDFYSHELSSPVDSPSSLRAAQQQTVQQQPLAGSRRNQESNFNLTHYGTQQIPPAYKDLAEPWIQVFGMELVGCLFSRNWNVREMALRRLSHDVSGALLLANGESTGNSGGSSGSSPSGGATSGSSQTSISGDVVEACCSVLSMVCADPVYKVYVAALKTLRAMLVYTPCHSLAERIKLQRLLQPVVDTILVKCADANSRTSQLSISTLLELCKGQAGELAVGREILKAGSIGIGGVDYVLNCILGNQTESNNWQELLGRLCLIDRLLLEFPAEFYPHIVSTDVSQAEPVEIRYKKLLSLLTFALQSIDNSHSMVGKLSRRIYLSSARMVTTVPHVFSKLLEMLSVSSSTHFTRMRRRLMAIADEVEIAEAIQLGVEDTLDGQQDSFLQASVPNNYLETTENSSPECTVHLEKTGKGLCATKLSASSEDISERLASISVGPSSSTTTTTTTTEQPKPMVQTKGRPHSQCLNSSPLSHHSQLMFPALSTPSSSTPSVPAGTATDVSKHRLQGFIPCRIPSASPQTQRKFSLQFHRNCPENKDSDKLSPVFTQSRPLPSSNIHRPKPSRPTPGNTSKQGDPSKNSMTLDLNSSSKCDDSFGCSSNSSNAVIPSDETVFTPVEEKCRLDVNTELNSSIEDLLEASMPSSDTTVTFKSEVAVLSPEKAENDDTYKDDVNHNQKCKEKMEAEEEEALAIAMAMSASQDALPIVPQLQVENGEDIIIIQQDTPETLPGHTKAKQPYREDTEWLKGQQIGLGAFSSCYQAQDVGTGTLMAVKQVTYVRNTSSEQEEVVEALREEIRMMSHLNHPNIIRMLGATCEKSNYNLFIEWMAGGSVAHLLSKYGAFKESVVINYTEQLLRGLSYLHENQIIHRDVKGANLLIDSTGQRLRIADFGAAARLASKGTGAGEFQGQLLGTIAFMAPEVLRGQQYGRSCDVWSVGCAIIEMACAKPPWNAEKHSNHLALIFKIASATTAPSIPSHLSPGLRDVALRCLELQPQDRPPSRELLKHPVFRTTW
T1 sequence (P50750 whole entry): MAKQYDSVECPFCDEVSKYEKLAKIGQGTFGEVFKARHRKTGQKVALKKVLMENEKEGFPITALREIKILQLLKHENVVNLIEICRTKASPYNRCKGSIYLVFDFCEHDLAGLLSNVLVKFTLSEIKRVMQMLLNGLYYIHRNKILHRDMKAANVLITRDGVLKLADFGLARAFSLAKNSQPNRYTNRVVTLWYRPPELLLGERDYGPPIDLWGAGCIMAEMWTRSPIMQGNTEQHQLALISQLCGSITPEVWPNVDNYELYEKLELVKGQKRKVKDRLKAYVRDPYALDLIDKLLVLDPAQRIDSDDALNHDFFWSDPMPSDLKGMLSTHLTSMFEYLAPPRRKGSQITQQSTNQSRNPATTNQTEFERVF
T1 sequence (O60563 whole entry partner): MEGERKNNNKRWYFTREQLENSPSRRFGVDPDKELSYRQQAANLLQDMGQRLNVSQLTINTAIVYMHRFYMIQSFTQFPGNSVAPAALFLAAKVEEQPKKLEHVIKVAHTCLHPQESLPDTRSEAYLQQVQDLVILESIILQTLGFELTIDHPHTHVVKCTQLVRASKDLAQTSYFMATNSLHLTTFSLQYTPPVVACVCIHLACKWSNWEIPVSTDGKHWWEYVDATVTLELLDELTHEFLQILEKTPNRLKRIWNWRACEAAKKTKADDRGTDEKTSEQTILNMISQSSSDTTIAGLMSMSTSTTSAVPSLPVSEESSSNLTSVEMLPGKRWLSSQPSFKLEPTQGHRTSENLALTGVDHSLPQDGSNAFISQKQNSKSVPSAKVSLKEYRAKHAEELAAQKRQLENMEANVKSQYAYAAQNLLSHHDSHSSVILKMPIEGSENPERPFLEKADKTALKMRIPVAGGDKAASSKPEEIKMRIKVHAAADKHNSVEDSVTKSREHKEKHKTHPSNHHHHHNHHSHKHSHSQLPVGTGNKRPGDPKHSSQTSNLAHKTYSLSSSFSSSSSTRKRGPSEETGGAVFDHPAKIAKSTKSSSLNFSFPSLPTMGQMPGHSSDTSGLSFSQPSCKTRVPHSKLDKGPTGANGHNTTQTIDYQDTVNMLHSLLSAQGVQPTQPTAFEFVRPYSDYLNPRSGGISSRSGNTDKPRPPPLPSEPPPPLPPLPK

SMILES | remaining activity at 1 µM (CDK9-Cyclin T1) [%] | remaining activity at 1 µM (EIF2AK3) [%] | remaining activity at 1 µM (EPH-A2) [%] | remaining activity at 1 µM (MAP4K3) [%] | remaining activity at 1 µM (MEKK1) [%] | remaining activity at 1 µM (SYK) [%] | remaining activity at 1 µM (p38d MAPK) [%] | remaining activity at 1 µM (DYRK1A) [%] | residual activity (CDK9-Cyclin T1; 1 μM) [%] | residual activity (EIF2AK3; 1 μM) [%] | residual activity (EPH-A2; 1 μM) [%] | residual activity (MAP4K3; 1 μM) [%] | residual activity (MEKK1; 1 μM) [%] | residual activity (SYK; 1 μM) [%] | residual activity (p38d MAPK; 1 μM) [%] | residual activity (DYRK1A; 1 μM) [%]
COCCOc1ccc(-c2cn(-c3ccccc3)c3nc[nH]c(=O)c23)cc1 [DMX-5804, 5-[4-(2-methoxy-ethoxy)-phenyl]-7-phenyl-3,7-dihydro-pyrrolo[2,3-d]pyrimidin-4-one] | 113 | 110 | 94 | 41 | 111 | 96 | 107 | 110 | – | – | – | – | – | – | – | –
Oc1ncnc2c1c(-c1ccccc1)cn2-c1ccccc1 [F1386-0303, 5,7-diphenyl-7H-pyrrolo[2,3-d]pyrimidin-4-ol] | 88 | 99 | 97 | 84 | 97 | 112 | 114 | 108 | – | – | – | – | – | – | – | –
Nc1ncc(C(=O)NC2CN(C(=O)C3CC3)C2)c2ccc(-c3cccc(F)c3)nc12 [GNE-495] | – | – | – | – | – | – | – | – | 78 | 100 | 112 | 7 | 87 | 94 | 110 | 55
O=C1Nc2ccc(I)cc2/C1=C/c1cc(Br)c(O)c(Br)c1 [GW5074] | 104 | 85 | 63 | 31 | 5 | 72 | 82 | – | – | – | – | – | – | – | – | –
O=C1Cc2c([nH]c3ccc(Br)cc23)-c2ccccc2N1 [Kenpaullone] | 22 | 94 | 103 | 14 | 5 | 87 | 91 | – | – | – | – | – | – | – | – | –
